Experimental findings from BindingDB's records for doi:10.7270/Q2251GJ9 (The Scripps Research Institute Molecular Screening Center, 2007) are described below.

Where a name gives a salt, the structure may show the parent alone. Where only a bound is given, the exact number is not on record here.

The first experiment deals with Sphingosine 1-phosphate receptor 1 (Homo sapiens, UniProt P21453). The experiment is described as follows: S1P1 receptor agonists, dose response, cell-based, agonist mode, 60K MLSMR set (AID 468).
Chain of Sphingosine 1-phosphate receptor 1 (P21453 whole entry): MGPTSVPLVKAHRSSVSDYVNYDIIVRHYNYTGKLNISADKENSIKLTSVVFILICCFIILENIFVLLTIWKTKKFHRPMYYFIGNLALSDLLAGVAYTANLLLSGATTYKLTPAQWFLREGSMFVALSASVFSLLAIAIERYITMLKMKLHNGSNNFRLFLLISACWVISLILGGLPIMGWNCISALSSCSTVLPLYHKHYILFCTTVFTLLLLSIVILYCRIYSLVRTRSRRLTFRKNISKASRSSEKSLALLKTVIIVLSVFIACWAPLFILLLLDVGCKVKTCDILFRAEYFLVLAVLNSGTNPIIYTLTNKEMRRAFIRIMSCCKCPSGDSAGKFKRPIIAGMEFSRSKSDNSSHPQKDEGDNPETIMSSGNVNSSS
Conditions: not given
As usually defined, the EC50 is the concentration needed to bring the measured effect to its halfway point. Read a high EC50 as a less potent agent. As to `CCN(C(=O)c1ccc(C(C)(C)C)cc1)c1nnc(Cn2nnc3ccccc32)s1` [MLS000072751], it took 1.49 µM to reach a half-maximal effect (EC50).
In the case of `CCOc1ccc(-c2nc(CSCC(=O)N3CCN(c4cccc(OC)c4)CC3)c(C)o2)cc1` [1-[4-(3-methoxyphenyl)piperazino]-2-[(5-methyl-2-p-phenetyl-oxazol-4-yl)methylthio]ethanone], it took 9.02 µM to reach a half-maximal effect (EC50).
On the same count and under the same terms, the result for `CCn1c(SCC(=O)Nc2nc3ccc(C)cc3s2)nc2c(c1=O)SC(C)C2` (stereo not drawn) [2-[(3-ethyl-4-keto-6-methyl-6,7-dihydrothieno[3,2-d]pyrimidin-2-yl)thio]-N-(6-methyl-1,3-benzothiazol-2-yl)acetamide] reads 5.59 µM; that for `CCCOc1ccc(-c2nnc(-c3ccncc3)o2)cc1` [2-(4-propoxyphenyl)-5-(4-pyridyl)-1,3,4-oxadiazole], greater than 95 µM; that for `CC(Oc1ccccc1Br)C(=O)N1CCc2ccccc21` (stereo not drawn) [1-[2-(2-bromophenoxy)propanoyl]indoline], 6.81 µM.
Same read-out and setting: under `CC(C)c1cc(C(=O)N2CCN(C(c3ccccc3)c3ccccc3)CC2)no1` [(4-benzhydrylpiperazin-1-yl)-(5-propan-2-yl-1,2-oxazol-3-yl)methanone] stands greater than 10 µM; under `O=C(Nc1ccc(N2CCCCC2)c(Cl)c1)c1nnc[nH]1`, 0.857 µM.
Same read-out and setting: under `Cc1cc(-c2nnc(-c3ccccc3)c(-c3ccccc3)n2)c(C)o1` [3-(2,5-dimethyl-3-furanyl)-5,6-diphenyl-1,2,4-triazine] stands 2.97 µM; under `O=C(Nc1ccc(N2CCCC2)c(Cl)c1)c1ccc(Br)o1` [5-bromanyl-N-(3-chloranyl-4-pyrrolidin-1-yl-phenyl)furan-2-carboxamide], 4.15 µM; under `CCOC(=O)c1oc2cc(O)c(CC)cc2c(=O)c1-c1ccc2c(c1)OCCO2` [3-(2,3-dihydro-1,4-benzodioxin-6-yl)-6-ethyl-7-hydroxy-4-keto-chromene-2-carboxylic acid ethyl ester], greater than 10 µM.
`c1ccc(CSc2nnc(-c3c[nH]c4ccccc34)o2)cc1` had a 50% effective concentration (EC50) of 1.95 µM.
The same measure, in the same setting: under `COC(=O)c1c(C)n(-c2ccc(OC)cc2)c2ccc(O)cc12` [5-hydroxy-1-(4-methoxyphenyl)-2-methyl-3-indolecarboxylic acid methyl ester] stands 6.29 µM.
Same read-out and setting: the result for `CNc1oc(-c2ccc(OCc3ccccc3)cc2)nc1C#N` [2-(4-benzoxyphenyl)-5-(methylamino)oxazole-4-carbonitrile] reads 3.21 µM; that for `CCn1nc(-c2ccccc2)nc2c(=O)n(C)c(=O)nc1-2` [1-Ethyl-6-methyl-3-phenyl-1H-pyrimido[5,4-e][1,2,4]triazine-5,7-dione], 3.55 µM.
Same read-out and setting: under `CCOC(=O)c1ccc2c(c1)C(=O)N(C1CCCCC1)C2=O` [2-cyclohexyl-1,3-diketo-isoindoline-5-carboxylic acid ethyl ester] stands greater than 95 µM.
Compound `CC(=O)Nc1cc(OC(C)=O)c2nonc2c1OC(C)=O` [Acetic acid 7-acetoxy-5-acetylamino-benzo[1,2,5]oxadiazol-4-yl ester] displayed a 50% effective concentration (EC50) of 7.53 µM.
On the same count and under the same terms, the result for `CCOc1ccc(-c2nc(-c3ccncc3)no2)cc1OCC` [4-[5-(3,4-diethoxyphenyl)-1,2,4-oxadiazol-3-yl]pyridine] reads 0.207 µM; that for `O=C(c1ccc(F)cc1)C(CN1CCOCC1)c1ccccc1` (stereo not drawn) [1-(4-fluorophenyl)-3-(4-morpholinyl)-2-phenyl-1-propanone;hydrochloride], 17.9 µM; that for `O=C(Nc1nc(-c2ccc3c(c2)OCO3)cs1)c1ccncc1` [MLS000073104], 9.54 µM.
Same read-out and setting: under `Cc1ccccc1OCCCCc1c(C)n[nH]c1C` [SMR000103095] stands 6.74 µM.
Still for that read-out and setting: under `Clc1ccc(OCc2nc(-c3ccncc3)no2)c(Br)c1` [5-[(2-bromanyl-4-chloranyl-phenoxy)methyl]-3-pyridin-4-yl-1,2,4-oxadiazole] stands 3.86 µM; under `CCCOC(=O)c1ccc(OCC(O)Cn2c(C)nc3ccccc32)cc1` (stereo not drawn) [4-[2-hydroxy-3-(2-methyl-1-benzimidazolyl)propoxy]benzoic acid propyl ester], 8.15 µM; under `Cc1ccc(S(=O)(=O)Nc2cccc3ncccc23)s1` [5-methyl-N-quinolin-5-ylthiophene-2-sulfonamide], 9.62 µM.
For `CCC1CCCCN1C(=O)CSc1nnc(-c2c[nH]c3ccccc23)o1` (stereo not drawn), a half-maximal response (EC50) required 5.9 µM.
In turn, `Cc1nnc(SC(=O)N2c3ccccc3Sc3ccccc32)s1` [10-phenothiazinecarbothioic acid S-(5-methyl-1,3,4-thiadiazol-2-yl) ester] displayed a 50% effective concentration (EC50) of 3.57 µM.
Still for that read-out and setting: under `O=C(CSCC(=O)N1CCCCC1)Nc1nc(-c2cccs2)cs1` [2-(2-oxidanylidene-2-piperidin-1-yl-ethyl)sulfanyl-N-(4-thiophen-2-yl-1,3-thiazol-2-yl)ethanamide] stands greater than 30 µM; under `COC(=O)c1ccc(OCC(O)Cn2nnc3ccccc32)cc1` (stereo not drawn) [4-[3-(1-benzotriazolyl)-2-hydroxypropoxy]benzoic acid methyl ester], greater than 95 µM.
Same read-out and setting: under `COc1ccc(NC(=O)c2cc(-c3cccs3)on2)cc1OC` [MLS000087261] stands 5.79 µM; under `N#Cc1nc(-c2ccc(OCc3ccccc3)cc2)oc1NCc1cccnc1` [2-(4-benzoxyphenyl)-5-(3-pyridylmethylamino)oxazole-4-carbonitrile], 7.92 µM.

Still in this experiment, the particulars now being: inactive by the depositor's call.
Compound `Cc1ccccc1OCC(=O)Nc1ccc(N2CCN(C(=O)C(C)C)CC2)c(Cl)c1` [MLS000034491] came in with an EC50 of 16.8 µM.
On the same count and under the same terms, the result for `CC/N=c1\sc(C(=O)NCCc2ccccc2)cc(=O)n1CC` [3-Ethyl-2-[(Z)-ethylimino]-4-oxo-3,4-dihydro-2H-[1,3]thiazine-6-carboxylic acid phenethyl-amide] reads 22.5 µM.
The same measure, in the same setting: the result for `FC(F)(F)c1ccc(N2CCN(c3cc(-c4ccccc4)nc4ncnn34)CC2)nc1` [5-Phenyl-7-[4-(5-trifluoromethyl-pyridin-2-yl)-piperazin-1-yl]-[1,2,4]triazolo[1,5-a]pyrimidine] reads 31.9 µM; that for `COc1cccc(-c2cc(C(=O)Nc3ccccc3SC)no2)c1` [5-(3-methoxyphenyl)-N-(2-methylsulfanylphenyl)-1,2-oxazole-3-carboxamide], 18 µM; that for `Cc1cccc(N2CCN(C(=O)C3CCCN(S(=O)(=O)c4cccc5cccnc45)C3)CC2)c1C` (stereo not drawn) [MLS000120299], 16.3 µM.
Still for that read-out and setting: the result for `O=C(C1CC1)N1CCc2cc(S(=O)(=O)NCC3COc4ccccc4O3)ccc21` (stereo not drawn) [1-(cyclopropanecarbonyl)-N-(2,3-dihydro-1,4-benzodioxin-3-ylmethyl)-2,3-dihydroindole-5-sulfonamide] reads 14 µM.
As for `COC(=O)c1ccc(CSc2nc3ccccc3c(=O)n2Cc2ccco2)o1` [5-[[[3-(2-furanylmethyl)-4-oxo-2-quinazolinyl]thio]methyl]-2-furancarboxylic acid methyl ester], the response was half-maximal at 18.8 µM (EC50).
Same read-out and setting: under `CCOC(=O)c1sc2nc(NC(=O)C(C)(C)C)sc2c1C` [2-[(2,2-dimethyl-1-oxopropyl)amino]-6-methyl-5-thieno[2,3-d]thiazolecarboxylic acid ethyl ester] stands 12 µM.
The same measure, in the same setting: under `Cc1nc2ncnn2c(N2CCN(c3cccc(C(F)(F)F)c3)CC2)c1C` [5,6-Dimethyl-7-[4-(3-trifluoromethyl-phenyl)-piperazin-1-yl]-[1,2,4]triazolo[1,5-a]pyrimidine] stands 14.1 µM.
